Laboratory results from the supplement of paper PMC9663587.

What was measured:
Experiment in all cases: area over the GR curve, 72 h; higher = more effect;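 also: Dye Drop or Deep Dye Drop imaging of viable cells in 384-well plates (Hoechst nuclei, LIVE/DEAD dye), nine half-log doses, GR normalized to DMSO controls and time-zero plates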
AU565 = system: AU565
BT474 = system: BT474
BT549 = system: BT549
HCC1143 = system: HCC1143
HCC1395 = system: HCC1395
HCC202 = system: HCC202
MCF10A = system: MCF10A
PDX1258 = system: PDX1258
PDXHCI002 = system: PDXHCI002
SUM1315 = system: SUM1315
SUM190PT = system: SUM190PT
SUM44PE = system: SUM44PE
UACC812 = system: UACC812

Compound | area over the GR curve (AU565) [GR] | area over the GR curve (BT474) [GR] | area over the GR curve (BT549) [GR] | area over the GR curve (HCC1143) [GR] | area over the GR curve (HCC1395) [GR] | area over the GR curve (HCC202) [GR] | area over the GR curve (MCF10A) [GR] | area over the GR curve (PDX1258) [GR] | area over the GR curve (PDXHCI002) [GR] | area over the GR curve (SUM1315) [GR] | area over the GR curve (SUM190PT) [GR] | area over the GR curve (SUM44PE) [GR] | area over the GR curve (UACC812) [GR] | area over the GR curve (BT549; main component drawn) [GR] | area over the GR curve (HCC1143; main component drawn) [GR] | area over the GR curve (HCC1395; main component drawn) [GR] | area over the GR curve (MCF10A; main component drawn) [GR] | area over the GR curve (PDX1258; main component drawn) [GR] | area over the GR curve (PDXHCI002; main component drawn) [GR] | area over the GR curve (SUM1315; main component drawn) [GR]
CS(=O)(=O)N1CCN(Cc2cc3nc(-c4cccc5[nH]ncc45)nc(N4CCOCC4)c3s2)CC1 [Pictilisib/GDC0941] (max 10 µM) | 0.646 | 0.588 | 0.208 | 0.32 | 0.226 | 0.431 | 0.262 | 0.23 | 0.212 | 0.371 | 0.143 | 0.392 | 0.6 |  |  |  |  |  |  | 
O=C1NC(=O)[C@@H](c2cn3c4c(cccc24)CCC3)[C@@H]1c1c[nH]c2ccccc12 [Tivantinib/ARQ197] (max 10 µM) | 0.577 | 0.309 | 0.344 | 0.498 | 0.372 | 0.277 | 0.451 | 0.373 | 0.528 | 0.475 | 0.637 | 0.762 | 0.667 |  |  |  |  |  |  | 
Cc1c(N)nc([C@H](CC(N)=O)NC[C@H](N)C(N)=O)nc1C(=O)N[C@H](C(=O)N[C@H](C)[C@@H](O)[C@H](C)C(=O)N[C@H](C(=O)NCCc1nc(-c2nc(C(=O)NCCC[S+](C)C)cs2)cs1)[C@@H](C)O)[C@@H](OC1OC(CO)C(O)C(O)C1OC1OC(CO)C(O)C(OC(N)=O)C1O)c1cnc[nH]1 (stereo partly specified) [Bleomycin] (max 10 µM) |  |  |  |  |  |  |  |  |  |  |  |  |  | 0.467 | 0.658 | 0.607 | 0.449 | 0.295 | 0.272 | 0.41
CO[C@H]1C[C@@H]2CC[C@@H](C)[C@@](O)(O2)C(=O)C(=O)N2CCCC[C@H]2C(=O)O[C@H]([C@H](C)C[C@@H]2CC[C@@H](OCCO)[C@H](OC)C2)CC(=O)[C@H](C)/C=C(\C)[C@@H](O)[C@@H](OC)C(=O)[C@H](C)C[C@H](C)/C=C/C=C/C=C/1C [Everolimus] (max 10 µM) | 0.553 | 0.898 | 0.439 | 0.343 | 0.555 | 0.499 | 0.113 | 0.307 | -0.0896 | 0.454 | 0.571 | 0.734 | 0.984 |  |  |  |  |  |  | 
CN1CC[C@H](c2c(O)cc(O)c3c(=O)cc(-c4ccccc4Cl)oc23)[C@H](O)C1 [Flavopiridol] (max 1 µM) | 0.368 | 0.371 | 0.257 | 0.235 | 0.339 | 0.273 | 0.277 | 0.341 | 0.278 | 0.416 | 0.348 | 0.406 | 0.419 |  |  |  |  |  |  | 
CNCc1ccc(-c2[nH]c3cc(F)cc4c3c2CCNC4=O)cc1 [Rucaparib] (max 10 µM) | 0.0692 | 0.122 | 0.0437 | 0.0731 | 0.385 | 0.207 | 0.0413 | 0.204 | 0.0896 | 0.371 | 0.0862 | 0.0038 | 0.0535 |  |  |  |  |  |  | 
CC[C@@H]1C(=O)N(C)c2cnc(Nc3ccc(C(=O)N[C@H]4CC[C@H](N5CCN(CC6CC6)CC5)CC4)cc3OC)nc2N1C(C)C [Volasertib/BI6727] (max 1 µM) | 0.855 | 0.636 | 0.568 | 0.729 | 0.759 | 0.38 | 0.447 | 0.549 | 0.831 | 0.664 | 0.621 | 0.623 | 0.734 |  |  |  |  |  |  | 
CC1(N)CCN(c2cnc(-c3cccc(Cl)c3Cl)c(N)n2)CC1 [SHP099] (max 10 µM) | 0.0263 | -0.022 | 0.0349 | 0.0677 | 0.0738 | 0.051 | 0.081 | -0.0325 | 0.0735 | 0.121 | 0.0478 | 0.075 | 0.151 |  |  |  |  |  |  | 
CNc1nc(-c2ccc3c(N)n[nH]c3c2)cc(N2C[C@@H](C(=O)NC3CCCCC3)CC[C@H]2C)n1 (max 10 µM) | 0.223 | 0.332 | 0.0789 | 0.0906 | 0.187 | 0.365 | -0.0162 | 0.011 | -0.0573 | 0.291 | 0.292 | 0.165 | 0.367 |  |  |  |  |  |  | 
CCc1cncnc1N1CCN(Cc2nc3ccc(C(F)(F)F)cc3[nH]2)CC1 (max 10 µM) | 0.0402 | -0.104 | -0.0132 | 0.0639 | 0.0037 | 0.0342 | 0.0475 | -0.0033 | -0.045 | 0.0975 | 0.0049 | 0.0041 | 0.275 |  |  |  |  |  |  | 
COc1cc2c(Oc3ccc4[nH]c(C)cc4c3F)ncnc2cc1OCCCN1CCCC1 [Cediranib/AZD2171] (max 10 µM) | -0.0924 | -0.139 | 0.15 | 0.165 | 0.223 | 0.0677 | 0.031 | 0.0493 | 0.255 | 0.243 | -0.0464 | -0.0271 | 0.342 |  |  |  |  |  |  | 
CCc1cnn2c(NCc3ccc[n+]([O-])c3)cc(N3CCCC[C@H]3CCO)nc12 (max 1 µM) | 0.857 | 0.728 | 0.591 | 0.545 | 0.644 | 0.406 | 0.528 | 0.685 | 0.584 | 0.766 | 0.654 | 0.334 | 0.151 |  |  |  |  |  |  | 
COc1cccc(OCCCN)c1-c1cc(Nc2cnc(C#N)cn2)n[nH]1 | 0.5 | 0.186 | 1.4 | 0.619 | 0.832 | 0.332 | 0.301 | 0.868 | 0.045 | 0.809 | 0.598 | 0.75 | 0.0047 |  |  |  |  |  |  | 
CC(C)n1nc(-c2ccc3oc(N)nc3c2)c2c(N)ncnc21 [INK128/MLN0128] (max 3.162 µM) | 0.791 | 0.834 | 0.534 | 0.474 | 0.557 | 0.581 | 0.467 | 0.449 | 0.122 | 0.647 | 0.791 | 0.781 | 1.22 |  |  |  |  |  |  | 
N.N.[Cl][Pt][Cl] [Cisplatin] (max 10 µM) |  |  | 0.283 | 0.303 | 0.386 |  | 0.0952 | 0.155 | 0.201 | 0.296 |  |  |  |  |  |  |  |  |  | 
Nc1cc(C(F)(F)F)c(-c2cc(N3CCOCC3)nc(N3CCOCC3)n2)cn1 [Buparlisib/NVP-BKM120] (max 10 µM) | 0.662 | 0.53 | 0.248 | 0.392 | 0.308 | 0.371 | 0.249 | 0.245 | 0.229 | 0.438 | 0.253 | 0.436 | 0.806 |  |  |  |  |  |  | 
